Assay results reported in PMC8521193, “A Novel Polyphenol Oxidoreductase OhLac from Ochrobactrum sp. J10 for Lignin Degradation” (Frontiers in Microbiology, 2021).

Tests used:
Assay in all cases: spectrophotometric oxidation, […] nm
Assay type in all cases: biochemical
OhLac [1] = test system: T1, OhLac; settings: pH 5.0, 30°C, Cu2+ 5.00 mM
T1 construct: full length, 837 bp ORF, 279 aa as printed, about 31 kDa; pET28a(+) NcoI/XhoI; N-terminal His6 printed (these sites would rather give a C-terminal His6); E. coli BL21(DE3), Ni-NTA; monomer

OhLac [2] = test system: T1, OhLac; settings: pH 3.0, 50°C, Cu2+ 0.25 mM
OhLac [3] = test system: T1, OhLac; settings: pH 5.0, 40°C, Cu2+ 0.50 mM

SMILES: COc1cccc(OC)c1O [2,6-DMP]
- Km (OhLac [1]): 1130 µM

SMILES: CCn1c(=NN=c2sc3cc(S(=O)(=O)O)ccc3n2CC)sc2cc(S(=O)(=O)O)ccc21 [ABTS]
- Km (OhLac [2]): 1060 µM

SMILES: COc1ccccc1O [guaiacol]
- Km (OhLac [3]): 523 ± 9.2 µM
